Experimental data published in patent publication US20230101022A1, “GINSENOSIDE M1 AS A MODULATOR OF A[…] AND ITS USE FOR TREATING DISEASES OR […] SYMPTOMS CAUSED BY CORONAVIRUS” (priority 2020, published 2023).

Tests used:
[1] = tested on: Ang II and Ang-(1-7) levels in the renal tissue; experiment: Ang II and Ang-(1-7) level assessment in the renal tissue of SHR/WKY rats (ELISA); type: in vivo, rat; details: 20 mg/kg oral once daily for 42 days, ELISA (FIG. 1)
Method: (§1) A total of 20 Wistar-Kyoto rats (WKY) and 20 SHR (male, 16˜17 weeks old) animals were grouped into four: WKY group (8 WKY, orally administered 0.5% CMC-Na); SHR group (8 SHR, orally administered 0.5% CMC-Na); WKY+Ginsenoside M1 group (8 WKY, orally administered 20 mg/kgGinsenoside M1); SHR +Ginsenoside M1 group (8 SHR, orally administered 20 mg/kg Ginsenoside M1). Ginsenoside M1 or placebo administration was carried out once daily for 42 days is was followed by animal sacrifice and blood and renal tissue sample collection. The renal tissue specimens underwent fixation with 4% formalin (histopathology) or were snap-frozen with liquid nitrogen and kept at −80° C. for reverse transcription quantitative real-time polymerase chain reaction (RT-qPCR) and enzyme-linked immunosorbent assay (ELISA).
(§2) The supernatants of renal specimens were prepared as follows. A total of 100 mg of the renal tissue was homogenized in 900 μL of ice-cold normal saline and submitted to centrifugation (1000 g, 4° C. for 15 min). The resulting supernatants were kept at −80° C. until analysis with Ang II and Ang-(1-7) ELISA kits, respectively, in accordance with the manufacturer's protocols.

ACE [2] = experiment: IHC of ACE in the renal tissue of SHR/WKY rats; type: in vivo, rat; details: either WKY or SHR, 20 mg/kg oral once daily for 42 days, IHC (FIG. 2)
Method: as §1
(§3) ACE and ACE2 primary antibodies were produced by Bioss Antibodies. Peroxidase-linked goat anti-rabbit secondary antibodies and the DAB and two-step rabbit IHC kits were provided by ZSGB-BIO. IHC was carried out as proposed by ZSGB-BIO.

ACE2 [3] = experiment: IHC of ACE2 in the renal tissue of SHR/WKY rats; type: in vivo, rat; details: SHR, 20 mg/kg oral once daily for 42 days, IHC (FIG. 2)
Method: as §1, §3

[4] = tested on: Ang II and Ang-(1-7) levels in the renal tissue; experiment: Ang II and Ang-(1-7) level assessment in the renal tissue of mice infused Ang II (ELISA); type: in vivo; details: C57BL/6 mice infused Ang II, 20 mg/kg oral daily for 14 days, ELISA (FIG. 3), vs Ang II group
Method: (§4) A total of twenty C57BL/6 mice (male, 10 weeks old) were maintained with rodent chow and water at will. Subcutaneous implantation of a 1002 osmotic minipump was performed at the dorsum of the neck for Ang II (1.5 mg/kg) or normal saline infusion animals were assigned to four groups: Saline group (5 mice, infused with normal saline and orally administered 0.5% CMC-Na); Ang II group (5 mice, infused with Ang II and orally administered 0.5% CMC-Na); Saline+Ginsenoside M1 group (5 mice, infused with normal saline and orally administered 20 mg·kg−1·d−1 Ginsenoside M1); Ang II +Ginsenoside M1 group (5 mice, infused with Ang II and orally administered 20 mg/kg Ginsenoside M1). Ginsenoside M1 or placebo administration was performed daily for 14 days, followed by animal sacrifice and blood and renal tissue sample collection. The renal tissue specimens underwent fixation with 4% formalin (histopathology) or were snap-frozen with liquid nitrogen and kept at −80° C. (RT-qPCR and ELISA).
as §2

ACE [5] = experiment: IHC of ACE in the renal tissue of mice (infusion model); type: in vivo; details: C57BL/6 mice infused saline or Ang II, 20 mg/kg oral daily for 14 days, IHC (FIG. 4)
Method: as §4, §3

ACE2 [6] = experiment: IHC of ACE2 in the renal tissue of mice (infusion model); type: in vivo; details: C57BL/6 mice infused Ang II, 20 mg/kg oral daily for 14 days, IHC (FIG. 4), vs the other three groups
Method: as §4, §3

[7] = tested on: bleomycin-induced lung fibrosis; experiment: Bleomycin-induced lung alveolitis and fibrosis in mice (Szapiel scoring); type: in vivo
Method: The animals were randomly divided into 5 groups as: (1) Saline group: 0.9% saline (200 μL) injection via the tail vein; (2) ACE2 group: a single intraperitoneal injection of ACE2 (0.2 mg/kg); (3) BLM group: a single injection of bleomycin at 150 mg/kg via the tail vein; and (4) BLM+ACE2 group: an injection of bleomycin at 150 mg/kg via the tail vein, followed by an intraperitoneal injection of ACE2 at 0.2 mg/kg. (5) BLM+ACE2+M1 group: an injection of bleomycin at 150 mg/kg via the tail vein, followed by an intraperitoneal injection of 0.2 mg/kg ACE2 and 60mg/kg M1. After administration, ten animals randomly selected from each group were euthanized on days 7, 14 and 28 by cervical dislocation.
Administration of bleomycin is a well-characterized model of pulmonary alveolitis or fibrosis in mice. The fibrotic changes in the lungs were determined using the Szapiel scoring method, higher score indicating greater disease condition. […] On day 28, in the BLM group, alveolitis spontaneously resolved; however, derangement of the alveolar architecture continued, and fibrosis persisted, characterized by diffuse, dense, thick collagen bundles and fibroblast foci.

[8] = day 14, bleomycin 150 mg/kg tail vein, ACE2 0.2 mg/kg i.p.

Molecule | Ang II levels in the renal tissue ([1]; SHR, vs SHR group) | Ang-(1-7) amounts in the renal tissue ([1]; SHR, vs SHR group) | Ang II levels in the renal tissue ([1]; WKY) | ACE expression in the renal tissue (ACE [2]) | ACE2 amounts in the renal tissue (ACE2 [3]) | Ang II levels in the renal tissue [4] | Ang-(1-7) levels in the renal tissue [4] | ACE expression in the renal tissue (ACE [5]) | ACE2 expression levels in the renal tissue (ACE2 [6]) | Signs of alveolitis or fibrosis without bleomycin ([7]; ACE2 group: single i.p. injection 0.2 mg/kg, no bleomycin, days 7, 14 and 28) | Pathological changes in the lung (alveolitis) ([7]; day 7, bleomycin 150 mg/kg tail vein, ACE2 0.2 mg/kg i.p.) | Alveolitis (Szapiel scoring) [7, 8] | Fibrosis (Szapiel scoring) [7, 8] | Alveolitis (Szapiel scoring) ([7]; day 28, bleomycin 150 mg/kg tail vein, ACE2 0.2 mg/kg i.p., with or without M1 60 mg/kg)
CC(C)=CCC[C@](C)(O[C@@H]1O[C@H](CO)[C@@H](O)[C@H](O)[C@H]1O)[C@H]1CC[C@]2(C)[C@@H]1[C@H](O)C[C@@H]1[C@@]3(C)CC[C@H](O)C(C)(C)[C@@H]3CC[C@]12C [Ginsenoside M1, 20-O-β-D-glucopyranosyl-20(S)-protopanaxadiol] | significantly reduced | significantly higher values compared with the SHR group | limited effects | no significant effect | further upregulate | attenuate this increase significantly | significant increase compared with the Ang II group | no marked differences | markedly elevated | – | – | – | – | –
ACE2: recombinant mouse ACE2 (angiotensin-converting enzyme 2) given by intraperitoneal injection (protein, UniProt Q8R0I0 18-805, looked up) Angiotensin-converting enzyme …: QSLTEENAKTFLNNFNQEAEDLSYQSSLASWNYNTNITEENAQKMSEAAAKWSAFYEEQSKTAQSFSLQEIQTPIIKRQLQALQQSGSSALSADKNKQLNTILNTMSTIYSTGKVCNPKNPQECLLLEPGLDEIMATSTDYNSRLWAWEGWRAEVGKQLRPLYEEYVVLKNEMARANNYNDYGDYWRGDYEAEGADGYNYNRNQLIEDVERTFAEIKPLYEHLHAYVRRKLMDTYPSYISPTGCLPAHLLGDMWGRFWTNLYPLTVPFAQKPNIDVTDAMMNQGWDAERIFQEAEKFFVSVGLPHMTQGFWANSMLTEPADGRKVVCHPTAWDLGHGDFRIKMCTKVTMDNFLTAHHEMGHIQYDMAYARQPFLLRNGANEGFHEAVGEIMSLSAATPKHLKSIGLLPSDFQEDSETEINFLLKQALTIVGTLPFTYMLEKWRWMVFRGEIPKEQWMKKWWEMKREIVGVVEPLPHDETYCDPASLFHVSNDYSFIRYYTRTIYQFQFQEALCQAAKYNGSLHKCDISNSTEAGQKLLKMLSLGNSEPWTKALENVVGARNMDVKPLLNYFQPLFDWLKEQNRNSFVGWNTEWSPYADQSIKVRISLKSALGANAYEWTNNEMFLFRSSVAYAMRKYFSIIKNQTVPFLEEDVRVSDLKPRVSFYFFVTSPQNVSDVIPRSEVEDAIRMSRGRINDVFGLNDNSLEFLGIHPTLEPPYQPPVTIWLIIFGVVMALVVVGIIILIVTGIKGRKKKNETKREENPYDSMDIGKGESNAGFQNSDDAQTSF | – | – | – | – | – | – | – | – | – | No signs of alveolitis or fibrosis | did not significantly alter | significantly attenuated | significantly attenuated | only mild to moderate alveolitis
